Experimental data reported in US20250084040A1, “SUBSTITUTED HETEROCYCLES AS c-MYC TARGETING AGENTS” (Northwestern University, priority 2018, published 2025).

Columns and labels:
[1] = In vitro metabolism, mouse liver microsomes; type: in vitro ADME; conditions: % remaining of compound after 60 min treatment with mouse liver microsomes
Experimental: In vitro metabolism of NUCC-176242 and NUCC-176248 were tested using mouse liver microsomes and a mouse S9 fraction. (See FIG. 9).

NCI 60 cell panel = assay: NCI 60 Cell One-Dose Screen; type: cell-based, human; conditions: 1.00E−5 Molar
Experimental: General Description. As of early 2007 all compounds submitted to the NCI 60 Cell screen are tested initially at a single high dose (10^-5 M) in the full NCI 60 cell panel. Only compounds which satisfy pre-determined threshold inhibition criteria in a minimum number of cell lines will progress to the full 5-dose assay. The threshold inhibition criteria for progression to the 5-dose screen was selected to efficiently capture compounds with anti-proliferative activity based on careful analysis of historical DTP screening data. The threshold criteria may be updated as additional data becomes available.
Interpretation of One-Dose Data. The One-dose data will be reported as a mean graph of the percent growth of treated cells and will be similar in appearance to mean graphs from the 5-dose assay. The number reported for the One-dose assay is growth relative to the no-drug control, and relative to the time zero number of cells. This allows detection of both growth inhibition (values between 0 and 100) and lethality (values less than 0). This is the same as for the 5-dose assay, described below. For example, a value of 100 means no growth inhibition. A value of 40 would mean 60% growth inhibition. A value of 0 means no net growth over the course of the experiment. A value of −40 would mean 40% lethality. A value of −100 means all cells are dead. Information from the One-dose mean graph is available for COMPARE analysis.
The human tumor cell lines of the cancer screening panel are grown in RPMI 1640 medium containing 5% fetal bovine serum and 2 mM L-glutamine. For a typical screening experiment, cells are inoculated into 96 well microtiter plates in 100 μL at plating densities ranging from 5,000 to 40,000 cells/well depending on the doubling time of individual cell lines. After cell inoculation, the microtiter plates are incubated at […], 5% CO2, 95% air and 100% relative humidity for 24 h prior to addition of experimental drugs.
After 24 h, two plates of each cell line are fixed in situ with TCA, to represent a measurement of the cell population for each cell line at the time of drug addition (Tz). Experimental drugs are solubilized in dimethyl sulfoxide at 400-fold the desired final maximum test concentration and stored frozen prior to use. At the time of drug addition, an aliquot of frozen concentrate is thawed and diluted to twice the desired final maximum test concentration with complete medium containing 50 µg/ml gentamicin. Additional four, 10-fold or ½ log serial dilutions are made to provide a total of five drug concentrations plus control. Aliquots of 100 μl of these different drug dilutions are added to the appropriate microtiter wells already containing 100 μl of medium, resulting in the required final drug concentrations.
Following drug addition, the plates are incubated for an additional 48 h at 37° C., 5% CO2, 95% air, and 100% relative humidity. For adherent cells, the assay is terminated by the addition of cold TCA. Cells are fixed in situ by the gentle addition of 50 μl of cold 50% (w/v) TCA (final concentration, 10% TCA) and incubated for 60 minutes at 4° C. The supernatant is discarded, and the plates are washed five times with tap water and air dried. Sulforhodamine B (SRB) solution (100 μl) at 0.4% (w/v) in 1% acetic acid is added to each well, and plates are incubated for 10 minutes at room temperature. After staining, unbound dye is removed by washing five times with 1% acetic acid and the plates are air dried. Bound stain is subsequently solubilized with 10 mM trizma base, and the absorbance is read on an automated plate reader at a wavelength of 515 nm. For suspension cells, the methodology is the same except that the assay is terminated by fixing settled cells at the bottom of the wells by gently adding 50 μl of 80% TCA (final concentration, 16% TCA). […]

For `CCCCCCOc1ccc(-c2cc(C(F)(F)F)nn2C)c(O)c1-c1cncc(C#N)c1` [NUCC-0201207], the “MLM % at 60 min” value [1] was 52.7%.

With `Cn1nc(C(F)(F)F)cc1-c1ccc(OCc2ccc(Cl)cc2)cc1C=O` [NUCC-0200976] the “MLM % at 60 min” value [1] was 21.8%.

With `CCCCCCOc1ccc(-c2cc(C(F)(F)F)n[nH]2)c(O)c1-c1cc(C(F)(F)F)cc(C(F)(F)F)c1` [NUCC-0201196] the “MLM % at 60 min” value [1] was 66.6%.

For `COc1cccc(-c2c(-c3ccc(OCc4ccc(Cl)cc4)cc3O)n[nH]c2C(F)(F)F)c1` [NUCC-0198309], the “MLM % at 60 min” value [1] was 74%.

With `Cn1nc(C(F)(F)F)cc1-c1ccc(OCc2ccc(Cl)cc2)c(-c2ccc(Cl)c(C(F)(F)F)c2)c1O` [NSC: D-804955/1] the “Growth Percent” value (NCI 60 cell panel; 786-0 (Renal Cancer)) was 28.42%, the “Growth Percent” value (NCI 60 cell panel; A498 (Renal Cancer)) was 5.29% and the “Growth Percent” value (NCI 60 cell panel; A549/ATCC (Non-Small Cell Lung Cancer)) was 12.83%. For the same compound, the “Growth Percent” value (NCI 60 cell panel; ACHN (Renal Cancer)) was 5.21%, the “Growth Percent” value (NCI 60 cell panel; BT-549 (Breast Cancer)) was 39.82% and the “Growth Percent” value (NCI 60 cell panel; CAKI-1 (Renal Cancer)) was 19.80%. For the same compound, the “Growth Percent” value (NCI 60 cell panel; CCRF-CEM (Leukemia)) was 9.89%, the “Growth Percent” value (NCI 60 cell panel; COLO 205 (Colon Cancer)) was 24.55% and the “Growth Percent” value (NCI 60 cell panel; DU-145 (Prostate Cancer)) was 19.03%. The “Growth Percent, Delta” value (NCI 60 cell panel; Delta of the mean graph) was 35.96%, the “Growth Percent” value (NCI 60 cell panel; EKVX (Non-Small Cell Lung Cancer)) was 12.77% and the “Growth Percent” value (NCI 60 cell panel; HCC-2998 (Colon Cancer)) was 13.50%. The “Growth Percent” value (NCI 60 cell panel; HCT-15 (Colon Cancer)) was 8.53%, the “Growth Percent” value (NCI 60 cell panel; HCT-116 (Colon Cancer)) was −0.40% and the “Growth Percent” value (NCI 60 cell panel; HL-60(TB) (Leukemia)) was 9.30%. The “Growth Percent” value (NCI 60 cell panel; HOP-62 (Non-Small Cell Lung Cancer)) was 50.48%, the “Growth Percent” value (NCI 60 cell panel; HOP-92 (Non-Small Cell Lung Cancer)) was −22.43% and the “Growth Percent” value (NCI 60 cell panel; HS 578T (Breast Cancer)) was 22.83%. For the same compound, the “Growth Percent” value (NCI 60 cell panel; HT29 (Colon Cancer)) was 20.44%, the “Growth Percent” value (NCI 60 cell panel; IGROV1 (Ovarian Cancer)) was 38.95% and the “Growth Percent” value (NCI 60 cell panel; KM12 (Colon Cancer)) was 8.83%. For the same compound, the “Growth Percent” value (NCI 60 cell panel; LOX IMVI (Melanoma)) was 5.24%, the “Growth Percent” value (NCI 60 cell panel; M14 (Melanoma)) was 35.38% and the “Growth Percent” value (NCI 60 cell panel; MALME-3M (Melanoma)) was 12.24%. For the same compound, the “Growth Percent” value (NCI 60 cell panel; MCF7 (Breast Cancer)) was 4.01%, the “Growth Percent” value (NCI 60 cell panel; MDA-MB-231/ATCC (Breast Cancer)) was 8.70% and the “Growth Percent” value (NCI 60 cell panel; MDA-MB-435 (Melanoma)) was 24.66%. The “Growth Percent” value (NCI 60 cell panel; MDA-MB-468 (Breast Cancer)) was −18.75%, the “Growth Percent” value (NCI 60 cell panel; MOLT-4 (Leukemia)) was 12.26% and the “Growth Percent, Mean” value (NCI 60 cell panel; Mean over the cell panel) was 13.53%. The “Growth Percent” value (NCI 60 cell panel; NCI-H23 (Non-Small Cell Lung Cancer)) was −6.46%, the “Growth Percent” value (NCI 60 cell panel; NCI-H322M (Non-Small Cell Lung Cancer)) was 18.15% and the “Growth Percent” value (NCI 60 cell panel; NCI-H460 (Non-Small Cell Lung Cancer)) was 6.25%. The “Growth Percent” value (NCI 60 cell panel; NCI-H522 (Non-Small Cell Lung Cancer)) was −13.66%, the “Growth Percent” value (NCI 60 cell panel; NCI/ADR-RES (Ovarian Cancer)) was 8.38% and the “Growth Percent” value (NCI 60 cell panel; OVCAR-3 (Ovarian Cancer)) was 1.24%. The “Growth Percent” value (NCI 60 cell panel; OVCAR-4 (Ovarian Cancer)) was 30.19%, the “Growth Percent” value (NCI 60 cell panel; OVCAR-5 (Ovarian Cancer)) was 53.43% and the “Growth Percent” value (NCI 60 cell panel; OVCAR-8 (Ovarian Cancer)) was 7.41%. The “Growth Percent” value (NCI 60 cell panel; PC-3 (Prostate Cancer)) was 3.78%, the “Growth Percent” value (NCI 60 cell panel; RPMI-8226 (Leukemia)) was −17.88% and the “Growth Percent, Range” value (NCI 60 cell panel; Range over the cell panel) was 75.86%. The “Growth Percent” value (NCI 60 cell panel; SF-268 (CNS Cancer)) was 26.01%, the “Growth Percent” value (NCI 60 cell panel; SF-295 (CNS Cancer)) was 12.82% and the “Growth Percent” value (NCI 60 cell panel; SF-539 (CNS Cancer)) was 34.37%. For the same compound, the “Growth Percent” value (NCI 60 cell panel; SK-MEL-2 (Melanoma)) was 1.95%, the “Growth Percent” value (NCI 60 cell panel; SK-MEL-28 (Melanoma)) was 31.16% and the “Growth Percent” value (NCI 60 cell panel; SK-OV-3 (Ovarian Cancer)) was 20.62%. The “Growth Percent” value (NCI 60 cell panel; SN12C (Renal Cancer)) was 6.24%, the “Growth Percent” value (NCI 60 cell panel; SNB-19 (CNS Cancer)) was 19.21% and the “Growth Percent” value (NCI 60 cell panel; SNB-75 (CNS Cancer)) was 47.69%. The “Growth Percent” value (NCI 60 cell panel; SR (Leukemia)) was 25.07%, the “Growth Percent” value (NCI 60 cell panel; SW-620 (Colon Cancer)) was 13.94% and the “Growth Percent” value (NCI 60 cell panel; T-47D (Breast Cancer)) was −0.38%. For the same compound, the “Growth Percent” value (NCI 60 cell panel; TK-10 (Renal Cancer)) was 0.36%, the “Growth Percent” value (NCI 60 cell panel; U251 (CNS Cancer)) was 0.82% and the “Growth Percent” value (NCI 60 cell panel; UACC-62 (Melanoma)) was 19.68%. For the same compound, the “Growth Percent” value (NCI 60 cell panel; UACC-257 (Melanoma)) was 2.35% and the “Growth Percent” value (NCI 60 cell panel; UO-31 (Renal Cancer)) was −6.34%.
